Laboratory results: the NIST ThermoML archive (doi:10.1021/je900672g)
Numbers after ± are expanded uncertainties.

Test: isobaric coefficient of expansion
Conditions: Liquid, DSC

O=[N+]([O-])c1ccccc1 [nitrobenzene]
isobaric coefficient of expansion
Conditions | 288.15 K | 298.15 K | 308.15 K | 318.15 K | 328.15 K | 338.15 K | 348.15 K
5000 kPa | 0.000818 ± 2e-05 1/K | 0.000823 ± 2e-05 1/K | 0.000827 ± 2e-05 1/K | 0.000832 ± 2e-05 1/K | 0.000837 ± 2.1e-05 1/K | 0.000843 ± 2.1e-05 1/K | 0.000852 ± 2.1e-05 1/K
10000 kPa | 0.000813 ± 2e-05 1/K | 0.000808 ± 2e-05 1/K | 0.000812 ± 2e-05 1/K | 0.00082 ± 2e-05 1/K | 0.000821 ± 2e-05 1/K | 0.000828 ± 2e-05 1/K | 0.000827 ± 2e-05 1/K
15000 kPa | 0.000797 ± 2e-05 1/K | 0.0008 ± 2e-05 1/K | 0.000799 ± 2e-05 1/K | 0.000802 ± 2e-05 1/K | 0.000802 ± 2e-05 1/K | 0.000806 ± 2e-05 1/K | 0.000811 ± 2e-05 1/K
20000 kPa | 0.000785 ± 1.9e-05 1/K | 0.000785 ± 1.9e-05 1/K | 0.000787 ± 1.9e-05 1/K | 0.000792 ± 1.9e-05 1/K | 0.000787 ± 1.9e-05 1/K | 0.00079 ± 1.9e-05 1/K | 0.000794 ± 1.9e-05 1/K
25000 kPa | 0.000775 ± 1.9e-05 1/K | 0.000772 ± 1.9e-05 1/K | 0.000773 ± 1.9e-05 1/K | 0.000774 ± 1.9e-05 1/K | 0.000774 ± 1.9e-05 1/K | 0.000775 ± 1.9e-05 1/K | 0.00078 ± 1.9e-05 1/K
30000 kPa | 0.000762 ± 1.9e-05 1/K | 0.000762 ± 1.9e-05 1/K | 0.00076 ± 1.9e-05 1/K | 0.000762 ± 1.9e-05 1/K | 0.000761 ± 1.9e-05 1/K | 0.000762 ± 1.9e-05 1/K | 0.000764 ± 1.9e-05 1/K
35000 kPa | 0.000749 ± 1.8e-05 1/K | 0.000752 ± 1.8e-05 1/K | 0.00075 ± 1.8e-05 1/K | 0.000749 ± 1.8e-05 1/K | 0.00075 ± 1.8e-05 1/K | 0.000751 ± 1.8e-05 1/K | 0.00075 ± 1.8e-05 1/K
40000 kPa | 0.00074 ± 1.8e-05 1/K | 0.000742 ± 1.8e-05 1/K | 0.000737 ± 1.8e-05 1/K | 0.000737 ± 1.8e-05 1/K | 0.000739 ± 1.8e-05 1/K | 0.000736 ± 1.8e-05 1/K | 0.000734 ± 1.8e-05 1/K
45000 kPa | 0.000729 ± 1.8e-05 1/K | 0.000731 ± 1.8e-05 1/K | 0.000728 ± 1.8e-05 1/K | 0.000729 ± 1.8e-05 1/K | 0.000726 ± 1.8e-05 1/K | 0.000725 ± 1.8e-05 1/K | 0.000721 ± 1.8e-05 1/K
50000 kPa | 0.000725 ± 1.8e-05 1/K | 0.000722 ± 1.8e-05 1/K | 0.000719 ± 1.8e-05 1/K | 0.000718 ± 1.8e-05 1/K | 0.000716 ± 1.8e-05 1/K | 0.000715 ± 1.8e-05 1/K | 0.000711 ± 1.7e-05 1/K
55000 kPa | 0.000717 ± 1.8e-05 1/K | 0.000714 ± 1.7e-05 1/K | 0.00071 ± 1.7e-05 1/K | 0.00071 ± 1.7e-05 1/K | 0.000707 ± 1.7e-05 1/K | 0.000708 ± 1.7e-05 1/K | 0.000701 ± 1.7e-05 1/K

CC[N+](=O)[O-] [nitroethane]
isobaric coefficient of expansion
Conditions | 278.15 K | 288.15 K | 298.15 K | 308.15 K | 318.15 K | 328.15 K | 338.15 K | 348.15 K
5000 kPa | 0.00113 ± 2.8e-05 1/K | 0.00114 ± 2.8e-05 1/K | 0.00115 ± 2.8e-05 1/K | 0.00117 ± 2.9e-05 1/K | 0.00119 ± 2.9e-05 1/K | 0.0012 ± 2.9e-05 1/K | 0.00122 ± 3e-05 1/K | 0.00126 ± 3.1e-05 1/K
10000 kPa | 0.0011 ± 2.7e-05 1/K | 0.00111 ± 2.7e-05 1/K | 0.00112 ± 2.7e-05 1/K | 0.00114 ± 2.8e-05 1/K | 0.00116 ± 2.8e-05 1/K | 0.00116 ± 2.8e-05 1/K | 0.00119 ± 2.9e-05 1/K | 0.00121 ± 3e-05 1/K
15000 kPa | 0.00109 ± 2.7e-05 1/K | 0.00109 ± 2.7e-05 1/K | 0.0011 ± 2.7e-05 1/K | 0.00111 ± 2.7e-05 1/K | 0.00113 ± 2.8e-05 1/K | 0.00113 ± 2.8e-05 1/K | 0.00114 ± 2.8e-05 1/K | 0.00117 ± 2.9e-05 1/K
20000 kPa | 0.00106 ± 2.6e-05 1/K | 0.00107 ± 2.6e-05 1/K | 0.00107 ± 2.6e-05 1/K | 0.00109 ± 2.7e-05 1/K | 0.0011 ± 2.7e-05 1/K | 0.0011 ± 2.7e-05 1/K | 0.00111 ± 2.7e-05 1/K | 0.00112 ± 2.8e-05 1/K
25000 kPa | 0.00104 ± 2.5e-05 1/K | 0.00105 ± 2.6e-05 1/K | 0.00105 ± 2.6e-05 1/K | 0.00106 ± 2.6e-05 1/K | 0.00107 ± 2.6e-05 1/K | 0.00107 ± 2.6e-05 1/K | 0.00108 ± 2.7e-05 1/K | 0.0011 ± 2.7e-05 1/K
30000 kPa | 0.00102 ± 2.5e-05 1/K | 0.00103 ± 2.5e-05 1/K | 0.00103 ± 2.5e-05 1/K | 0.00104 ± 2.5e-05 1/K | 0.00105 ± 2.6e-05 1/K | 0.00104 ± 2.6e-05 1/K | 0.00106 ± 2.6e-05 1/K | 0.00107 ± 2.6e-05 1/K
35000 kPa | 0.00101 ± 2.5e-05 1/K | 0.00101 ± 2.5e-05 1/K | 0.00101 ± 2.5e-05 1/K | 0.00102 ± 2.5e-05 1/K | 0.00102 ± 2.5e-05 1/K | 0.00103 ± 2.5e-05 1/K | 0.00103 ± 2.5e-05 1/K | 0.00104 ± 2.5e-05 1/K
40000 kPa | 0.000984 ± 2.4e-05 1/K | 0.000987 ± 2.4e-05 1/K | 0.000993 ± 2.4e-05 1/K | 0.000994 ± 2.4e-05 1/K | 0.000999 ± 2.4e-05 1/K | 0.001 ± 2.5e-05 1/K | 0.00101 ± 2.5e-05 1/K | 0.00101 ± 2.5e-05 1/K
45000 kPa | 0.000973 ± 2.4e-05 1/K | 0.000972 ± 2.4e-05 1/K | 0.000973 ± 2.4e-05 1/K | 0.000977 ± 2.4e-05 1/K | 0.000981 ± 2.4e-05 1/K | 0.000984 ± 2.4e-05 1/K | 0.000982 ± 2.4e-05 1/K | 0.000989 ± 2.4e-05 1/K
50000 kPa | 0.000958 ± 2.3e-05 1/K | 0.00096 ± 2.4e-05 1/K | 0.00096 ± 2.4e-05 1/K | 0.000961 ± 2.4e-05 1/K | 0.000964 ± 2.4e-05 1/K | 0.000964 ± 2.4e-05 1/K | 0.000964 ± 2.4e-05 1/K | 0.000966 ± 2.4e-05 1/K
55000 kPa | 0.00094 ± 2.3e-05 1/K | 0.000944 ± 2.3e-05 1/K | 0.000941 ± 2.3e-05 1/K | 0.000942 ± 2.3e-05 1/K | 0.000945 ± 2.3e-05 1/K | 0.000944 ± 2.3e-05 1/K | 0.000945 ± 2.3e-05 1/K | 0.000947 ± 2.3e-05 1/K

C[N+](=O)[O-] [nitromethane]
isobaric coefficient of expansion
Conditions | 278.15 K | 288.15 K | 298.15 K | 308.15 K | 318.15 K | 328.15 K | 338.15 K | 348.15 K
5000 kPa | 0.00116 ± 2.8e-05 1/K | 0.00118 ± 2.9e-05 1/K | 0.00121 ± 3e-05 1/K | 0.00123 ± 3e-05 1/K | 0.00126 ± 3.1e-05 1/K | 0.00129 ± 3.2e-05 1/K | 0.00134 ± 3.3e-05 1/K | 0.00138 ± 3.4e-05 1/K
10000 kPa | 0.00114 ± 2.8e-05 1/K | 0.00116 ± 2.8e-05 1/K | 0.00118 ± 2.9e-05 1/K | 0.0012 ± 2.9e-05 1/K | 0.00123 ± 3e-05 1/K | 0.00126 ± 3.1e-05 1/K | 0.00128 ± 3.1e-05 1/K | 0.00132 ± 3.2e-05 1/K
15000 kPa | 0.00113 ± 2.8e-05 1/K | 0.00114 ± 2.8e-05 1/K | 0.00116 ± 2.8e-05 1/K | 0.00118 ± 2.9e-05 1/K | 0.00119 ± 2.9e-05 1/K | 0.00121 ± 3e-05 1/K | 0.00124 ± 3e-05 1/K | 0.00127 ± 3.1e-05 1/K
20000 kPa | 0.0011 ± 2.7e-05 1/K | 0.00112 ± 2.7e-05 1/K | 0.00113 ± 2.8e-05 1/K | 0.00115 ± 2.8e-05 1/K | 0.00116 ± 2.8e-05 1/K | 0.00117 ± 2.9e-05 1/K | 0.0012 ± 3e-05 1/K | 0.00122 ± 3e-05 1/K
25000 kPa | 0.00108 ± 2.6e-05 1/K | 0.0011 ± 2.7e-05 1/K | 0.00111 ± 2.7e-05 1/K | 0.00112 ± 2.7e-05 1/K | 0.00113 ± 2.8e-05 1/K | 0.00114 ± 2.8e-05 1/K | 0.00117 ± 2.9e-05 1/K | 0.00119 ± 2.9e-05 1/K
30000 kPa | 0.00106 ± 2.6e-05 1/K | 0.00108 ± 2.6e-05 1/K | 0.00109 ± 2.7e-05 1/K | 0.0011 ± 2.7e-05 1/K | 0.00111 ± 2.7e-05 1/K | 0.00112 ± 2.7e-05 1/K | 0.00113 ± 2.8e-05 1/K | 0.00115 ± 2.8e-05 1/K
35000 kPa | 0.00105 ± 2.6e-05 1/K | 0.00106 ± 2.6e-05 1/K | 0.00107 ± 2.6e-05 1/K | 0.00108 ± 2.6e-05 1/K | 0.00109 ± 2.7e-05 1/K | 0.0011 ± 2.7e-05 1/K | 0.00111 ± 2.7e-05 1/K | 0.00112 ± 2.7e-05 1/K
40000 kPa | 0.00103 ± 2.5e-05 1/K | 0.00104 ± 2.6e-05 1/K | 0.00105 ± 2.6e-05 1/K | 0.00105 ± 2.6e-05 1/K | 0.00106 ± 2.6e-05 1/K | 0.00107 ± 2.6e-05 1/K | 0.00107 ± 2.6e-05 1/K | 0.00108 ± 2.6e-05 1/K
45000 kPa | 0.00102 ± 2.5e-05 1/K | 0.00102 ± 2.5e-05 1/K | 0.00103 ± 2.5e-05 1/K | 0.00103 ± 2.5e-05 1/K | 0.00104 ± 2.6e-05 1/K | 0.00105 ± 2.6e-05 1/K | 0.00105 ± 2.6e-05 1/K | 0.00106 ± 2.6e-05 1/K
50000 kPa | 0.001 ± 2.5e-05 1/K | 0.00101 ± 2.5e-05 1/K | 0.00101 ± 2.5e-05 1/K | 0.00102 ± 2.5e-05 1/K | 0.00103 ± 2.5e-05 1/K | 0.00103 ± 2.5e-05 1/K | 0.00103 ± 2.5e-05 1/K | 0.00103 ± 2.5e-05 1/K
55000 kPa | 0.000986 ± 2.4e-05 1/K | 0.000992 ± 2.4e-05 1/K | 0.000998 ± 2.4e-05 1/K | 0.001 ± 2.5e-05 1/K | 0.00101 ± 2.5e-05 1/K | 0.00101 ± 2.5e-05 1/K | 0.00102 ± 2.5e-05 1/K | 0.00102 ± 2.5e-05 1/K
